Source: US9145401B2, “Amide derivative and use of the same as stability index of a luliconazole pharmaceutical formulation” (POLA PHARMA INC., priority 2012, dated 2015)

Test system: fungi
Assay: Antifungal activity of the amide form

## NC(=O)/C(=C1/SCC(c2ccc(Cl)cc2Cl)S1)n1ccnc1 (single isomer, unassigned) [amide form, [R-(E)]-α-[4-(2,4-dichlorophenyl)-1,3-dithiolan-2-ylidene]-1H-imidazole-1-acetamide]
  antifungal activity: low
